Experimental data as given in publication PMC11949107, “Polyunsaturated fatty acids and their endocannabinoid-related metabolites activity at human TRPV1 and TRPA1 ion channels expressed in HEK-293 cells” (PeerJ, 2025).
Several values for one entry are separate records, joined by “and”; a condition that tells them apart may be missing. Equal values may be shown once.

What was measured:
[1] = test system: HEK-293 EV cells; experiment: Calcium 5 dye [Ca]i assay in HEK-293 empty vector (EV) cells; assay type: cell-based, human; conditions: 10 µM; HEK-293 EV cells; percentage of predrug baseline
Summary of the method: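 Tetracycline at 1 µg ml^−1 was added 4 h before testing; cells were loaded with Calcium 5 dye for 1 h and read at 37 °C, with drug added after 1 min baseline (final 0.1% DMSO). The response was the % change from the 60 s baseline after solvent subtraction, and EC50/Emax came from a three-parameter logistic fit, reported as pEC50.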

[2] = biological target: T1, human TRPV1 (Homo sapiens, UniProt Q8NER1); experiment: PMA (phorbol ester) potentiation of TRPV1 responses in HEK-293 TRPV1 cells; assay type: cell-based; conditions: for [Ca]i response (change in fluorescence), individual replicates: sheet Figure 5(C)
T1 construct: Life Technologies (cells); host or cells: Flp-In T-REx HEK-293
Experimental: Intracellular calcium [Ca]i levels were assessed using the calcium 5 kit from Molecular Devices (# R8186, Sunnyvale, CA, USA) on a FlexStation 3 Microplate Reader (Molecular Devices, Sunnyvale, CA, USA). […] Probenecid (cat # 50027; Biotium) which helps to prevent expulsion of calcium indicator from the cells was added to a final concentration of 1.25 mM. 90 µL of the dye were loaded into each well of the plate and incubated for 1 h before reading in the FlexStation 3 at 37 °C. Fluorescence was recorded every 2 s (λ excitation = 485 nm, λ emission = 525 nm) for 5 min. After 1 min of baseline recording, 20 µL of the drug, dissolved in HBSS with 1% dimethyl sulfoxide (DMSO) (cat # D2650; Sigma-Aldrich, Melbourne, Australia) was added (final DMSO concentration was 0.1% in well).
We initially determined the effect of PMA, another phorbol ester that is a protein kinase C activator ([Jiang & Fleet, 2012]) on HEK-293 TRPV1 expressing cells.
(A) Response of HEK-293 TRPV1 expressing cells for PMA at various concentration. […] Drugs were added for the duration of the bar; (D) The effects of PUFAs after potentiation of TRPV1 by PMA. […] Changes in [Ca]i are expressed as percentage of the pre-drug baseline, with the response to PMA alone at 5 min subtracted. The black circles represent the response of PUFAs without PMA pretreatment while the pink circles represent the response of PUFAs after PMA potentiation.

[3] = biological target: T1, human TRPV1; experiment: Calcium 5 dye [Ca]i assay in HEK-293 Flp-In T-REx cells expressing TRPV1 (agonist response); assay type: cell-based; conditions: for Change in Ca5 fluorescence, individual experiments (CRC raw data): TRPV1 cells
Summary of the method: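 Tetracycline-induced (1 µg ml^−1, 4 h) HEK-293 T-REx cells loaded with Calcium 5 dye plus 1.25 mM probenecid for 1 h; agonist added after 1 min baseline (0.1% DMSO final), fluorescence (485/525 nm) read every 2 s for 5 min at 37 °C. Response as % change from baseline, solvent-subtracted; EC50/Emax from three-parameter logistic fit, given as pEC50.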

T1 sequence (Q8NER1 whole entry): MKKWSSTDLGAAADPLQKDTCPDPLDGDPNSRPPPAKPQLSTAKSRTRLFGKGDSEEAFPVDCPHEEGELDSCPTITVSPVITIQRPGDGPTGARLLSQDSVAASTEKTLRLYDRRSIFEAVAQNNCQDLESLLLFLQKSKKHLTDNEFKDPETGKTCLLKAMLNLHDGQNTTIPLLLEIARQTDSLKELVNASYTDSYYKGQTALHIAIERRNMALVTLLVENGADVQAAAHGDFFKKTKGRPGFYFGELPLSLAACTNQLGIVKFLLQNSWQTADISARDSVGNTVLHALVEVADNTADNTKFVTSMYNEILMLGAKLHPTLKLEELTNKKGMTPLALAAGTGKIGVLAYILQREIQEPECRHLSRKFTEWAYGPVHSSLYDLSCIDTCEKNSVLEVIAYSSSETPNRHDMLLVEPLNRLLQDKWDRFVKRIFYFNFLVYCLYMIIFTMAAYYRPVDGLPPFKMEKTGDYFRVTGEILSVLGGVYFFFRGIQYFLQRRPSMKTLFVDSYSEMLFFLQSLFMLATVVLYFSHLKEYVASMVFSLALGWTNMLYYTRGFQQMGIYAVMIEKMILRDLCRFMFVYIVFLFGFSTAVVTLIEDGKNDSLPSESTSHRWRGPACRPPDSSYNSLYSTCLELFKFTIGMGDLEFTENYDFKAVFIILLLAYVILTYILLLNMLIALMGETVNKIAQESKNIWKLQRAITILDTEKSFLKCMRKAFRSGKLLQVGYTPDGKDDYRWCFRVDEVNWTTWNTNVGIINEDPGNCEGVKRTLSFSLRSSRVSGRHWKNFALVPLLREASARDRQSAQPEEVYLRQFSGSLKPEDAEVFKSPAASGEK

SMILES: COc1cc(CNC(=O)CCCC/C=C/C(C)C)ccc1O [Capsaicin]
- Change of Ca5 fluorescence, Mean ± SEM, EV (10 µM) [1]: 12 ± 2%
- [Ca]i response (change in fluorescence), individual replicates ([2]; Capsaicin alone, concentration -5 (log)): 595.541 and 626.277 and 602.254 and 594.454 and 590.074 and 541.046 and 516.667
- [Ca]i response (change in fluorescence), individual replicates ([2]; Capsaicin alone, concentration -6 (log)): 552.521 and 565.654 and 354.62 and 545.98 and 564.249 and 584.634 and 580.153
- [Ca]i response (change in fluorescence), individual replicates ([2]; Capsaicin alone, concentration -7.52288 (log)): 532.091 and 453.931 and 457.847 and 272.568
- [Ca]i response (change in fluorescence), individual replicates ([2]; Capsaicin alone, concentration -8 (log)): 105.919 and 177.189 and 79.3195 and 30.3097 and 60.6584 and 319.686 and 144.106
- [Ca]i response (change in fluorescence), individual replicates ([2]; Capsaicin alone, concentration -8.52288 (log)): 2.139 and 1.734 and 6.239 and 49.459 and 10.1781 and -5.201 and 2.9246 and 2.502 and 16.6604 and 25.7998 and 147.975 and 180.247
- [Ca]i response (change in fluorescence), individual replicates ([2]; Capsaicin alone, concentration -9 (log)): 2.491 and -0.4612 and 4.215 and 6.618 and 6.288 and 4.839 and 3.5734 and 0.9298 and 2.514 and -2.854 and 3.184 and 5.152
- [Ca]i response (change in fluorescence), individual replicates ([2]; Capsaicin alone, concentration -10 (log)): -1.109 and 5.021 and -0.4125 and -2.624 and 0.2107
- [Ca]i response (change in fluorescence), individual replicates ([2]; Capsaicin post-PMA, concentration -5 (log)): 496.984 and 417.588
- [Ca]i response (change in fluorescence), individual replicates ([2]; Capsaicin post-PMA, concentration -6 (log)): 544.156 and 380.208 and 494.359 and 527.721 and 402.607 and 284.086
- [Ca]i response (change in fluorescence), individual replicates ([2]; Capsaicin post-PMA, concentration -7.52288 (log)): 396.653 and 394.172 and 495.495 and 292.964
- [Ca]i response (change in fluorescence), individual replicates ([2]; Capsaicin post-PMA, concentration -8 (log)): 292.695 and 167.258 and 234.279 and 203.284 and 320.763 and 311.597 and 228.909
- [Ca]i response (change in fluorescence), individual replicates ([2]; Capsaicin post-PMA, concentration -8.52288 (log)): 137.626 and 123.803 and 108.674 and 62.3148 and 135.616 and 311.329 and 67.1431 and 138.197 and 73.5753 and 51.0772
- [Ca]i response (change in fluorescence), individual replicates ([2]; Capsaicin post-PMA, concentration -9 (log)): 41.3533 and 39.7921 and 40.9396 and 31.7003 and 53.9609 and 52.809 and 35.9713 and 49.984 and 39.816 and 29.7359 and 17.3567
- [Ca]i response (change in fluorescence), individual replicates ([2]; Capsaicin post-PMA, concentration -10 (log)): 44.473 and 19.9944 and 42.7227 and 36.7683 and 31.3318 and 10.3982
- HBSS post Capsaicin, individual experiments ([2]; HBSS after capsaicin 10 nM): 14.4552 and 24.0374 and 16.1823
- TRPV1 response after exposure to PMA ([2]; PMA 100 nM, 5 min pretreatment): amplified
- Drugs post-PMA, individual experiments ([2]; capsaicin 10 nM after PMA 100 nM for 5 min, response to PMA alone subtracted): 292.695 and 167.258 and 234.279 and 203.284 and 320.763
- Capsaicin response without PMA, individual experiments ([2]; capsaicin 10 nM alone): 226.255 and 133.384 and 132.765
- Drugs alone, individual experiments ([2]; capsaicin 10 nM without PMA pretreatment): 79.3195 and 30.3097 and 60.6584
- Elevation of [Ca]i in HEK-293 TRPV1 cells compared with HEK-293 EV cells ([3]; 10 µM): significantly greater
- Change of Ca5 fluorescence, Mean ± SEM, TRPV1 (10 µM) ([3]; 10 µM, HEK-293 TRPV1 cells, percentage of predrug baseline): 350 ± 33 %
- Emax at 30 µM ([3]; HEK293, read-out: Emax ± SEM % TRPV1 (30 µM)): 340 ± 19%
- TRPV1 response, Mean± SEM (N) ([3]; highest concentration of capsaicin (10 µM)): 337 ± 56 (21)
- Change in Ca5 fluorescence, individual experiments (CRC raw data) ([3]; log concentration -5 (M)): 470.33 and 172.951 and 473.364 and 509.446 and 171.926 and 427.551 and 233.547 and 218.906 and 339.94 and 178.11 and 253.39 and 197.967 and 463.085 and 202.235 and 472.577 and 462.537 and 153.101 and 535.708 and 529.643 and 524.333
- Change in Ca5 fluorescence, individual experiments (CRC raw data) ([3]; log concentration -6 (M)): 464.868 and 165.225 and 461.65 and 520.53 and 312.706 and 3.214 and 3.201 and 3.988 and 340.169 and 187.118 and 486.026 and 246.165 and 485.213
- Change in Ca5 fluorescence, individual experiments (CRC raw data) ([3]; log concentration -7 (M)): 449.588 and 119.691 and 406.342 and 2.432 and 332.379 and 480.521 and 322.808 and 86.6522 and 310.081 and 147.599 and 431.922 and 467.245
- Change in Ca5 fluorescence, individual experiments (CRC raw data) ([3]; log concentration -7.52288 (M)): 356.845 and 111.895 and 323.852 and 3.161 and 274.896 and 259.762 and 73.7365 and 34.2854 and 273.106 and 132.986 and 393.207 and 420.023 and 372.386
- Change in Ca5 fluorescence, individual experiments (CRC raw data) ([3]; log concentration -8 (M)): 5.385 and 96.7773 and 164.958 and 3.572 and 5.951 and 47.2327 and 7.175 and 1.822 and 309.776 and 125.652 and 333.972 and 270.42 and 149.94
- Change in Ca5 fluorescence, individual experiments (CRC raw data) ([3]; log concentration -8.52288 (M)): 11.2452 and 61.0751 and 5.8468 and 39.7141 and 6.931 and 3.397 and 5.378 and 0.9947 and 335.917 and 103.111 and 65.1245 and 4.361 and 1.4546
- Change in Ca5 fluorescence, individual experiments (CRC raw data) ([3]; log concentration -9 (M)): 6.236 and 19.5627 and 8.465 and 57.6325 and 2.89 and 1.796 and 10.3317 and 2.025 and 308.34 and 50.3171 and 51.1654 and 4.4283 and 2.369 and 122.651 and 6.769 and 5.267
- Change in Ca5 fluorescence ([3]; maximal effective concentration, HEK-293 TRPV1 cells, dye saturation control): 435 ± 15%
